Source: ChEMBL document CHEMBL4325915, “Synthesis of zwitterionic N-chlorohydantoins for antibacterial applications” (2018)

Legend:
Type in all cases: functional
Escherichia coli [1] = assay: Bactericidal activity against Escherichia coli ATCC 25922 assessed as log reduction in bacterial colonies preincubated for 5 mins followed by bacterial plating on Luria-Bertani plates and measured after 18 to 24 hrs relative to control
Staphylococcus aureus [2] = assay: Bactericidal activity against Staphylococcus aureus ATCC 25923 assessed as reduction in bacterial colonies preincubated for 10 mins followed by bacterial plating on Luria-Bertani plates and measured after 18 to 24 hrs relative to control; parameters: concentration or dose not given beside the values
Escherichia coli [3] = assay: Bactericidal activity against Escherichia coli ATCC 25922 assessed as reduction in bacterial colonies preincubated for 10 mins followed by bacterial plating on Luria-Bertani plates and measured after 18 to 24 hrs relative to control; parameters: concentration or dose not given beside the values
Staphylococcus aureus [4] = assay: Bactericidal activity against Staphylococcus aureus ATCC 25923 assessed as reduction in bacterial colonies preincubated for 5 mins followed by bacterial plating on Luria-Bertani plates and measured after 18 to 24 hrs relative to control; parameters: concentration or dose not given beside the values
Staphylococcus aureus [5] = assay: Bactericidal activity against Staphylococcus aureus ATCC 25923 assessed as log reduction in bacterial colonies preincubated for 10 mins followed by bacterial plating on Luria-Bertani plates and measured after 18 to 24 hrs relative to control
Escherichia coli [6] = assay: Bactericidal activity against Escherichia coli ATCC 25922 assessed as log reduction in bacterial colonies preincubated for 10 mins followed by bacterial plating on Luria-Bertani plates and measured after 18 to 24 hrs relative to control
Escherichia coli [7] = assay: Bactericidal activity against Escherichia coli ATCC 25922 assessed as reduction in bacterial colonies preincubated for 5 mins followed by bacterial plating on Luria-Bertani plates and measured after 18 to 24 hrs relative to control; parameters: concentration or dose not given beside the values
Staphylococcus aureus [8] = assay: Bactericidal activity against Staphylococcus aureus ATCC 25923 assessed as log reduction in bacterial colonies preincubated for 5 mins followed by bacterial plating on Luria-Bertani plates and measured after 18 to 24 hrs relative to control
Staphylococcus aureus [9] = assay: Bactericidal activity against Staphylococcus aureus ATCC 25923 assessed as reduction in bacterial colonies using initial inoculum of 4 x 10^7 CFU/ml preincubated for 5 mins followed by bacterial plating on Luria-Bertani plates and measured after 18 to 24 hrs relative to control; parameters: scale not given: the % may be the effect or the level left

Compound | log(activity) (Escherichia coli [1]) | Activity (Staphylococcus aureus [2]) | Activity (Escherichia coli [3]) | Activity (Staphylococcus aureus [4]) | log(activity) (Staphylococcus aureus [5]) | log(activity) (Escherichia coli [6]) | Activity (Escherichia coli [7]) | log(activity) (Staphylococcus aureus [8]) | Activity (Staphylococcus aureus [9])
CC1(C)C(=O)N(CCC[N+](C)(C)C)C(=O)N1Cl.[Cl-] | 0.24 | 75% | 99.3% | 11.8% | 0.6 | 2.18 | 42.2% | 0.05 | 
CC1(C)C(=O)N(CCC[N+](C)(C)CC(=O)[O-])C(=O)N1Cl | 0.88 | 100% | 100% | 34.3% | 6.83 | 6.63 | 86.7% | 0.18 | 15%
CC1(C)NC(=O)N(CCO)C1=O | 0 | 0% | 0% | 0% | 0 | 0 | 0% | 0 | 
CC1(C)NC(=O)N(CCC[N+](C)(C)CC(=O)[O-])C1=O | 0 | 0% | 0% | 0% | 0 | 0 | 0% | 0 | 
CC1(C)C(=O)N(CCO)C(=O)N1Cl | 6.63 | 100% | 100% | 100% | 6.83 | 6.63 | 100% | 6.83 | 99.8%
CC1(C)C(=O)N(CCC[N+](C)(C)CCCS(=O)(=O)[O-])C(=O)N1Cl | 0.13 | 49.1% | 89.9% | 19.8% | 0.29 | 1 | 25.1% | 0.1 | 
CC1(C)NC(=O)N(CCC[N+](C)(C)CCCS(=O)(=O)[O-])C1=O | 0 | 0% | 0% | 0% | 0 | 0 | 0% | 0 | 
CC1(C)NC(=O)N(CCC[N+](C)(C)C)C1=O.[Cl-] | 0 | 0% | 0% | 0% | 0 | 0 | 0% | 0 | 
